From patent publication US20100056519A1, “COMPOSITION AND METHOD FOR REDUCING PLATELET ACTIVATION AND FOR THE TREATMENT OF THROMBOTIC EVENTS” (priority 2008, published 2010)

What was measured:
Type in all cases: cell-based, human
platelets = test: Conventional platelet aggregation in PRP induced by 1 μg/ml collagen; settings: for Platelet Aggregation (%), Collagen 1 μg/mL: Mean ± SD
Experimental: (§1) The methodology employed was conventional aggregation induced by 5 μM ADP, 1 μg/ml collagen, 10 μM TRAP, whole blood aggregation with 1 μg/ml collagen, Ultegra, and PFA-100 Analyzers, expression of 14 intact, and TRAP-stimulated major receptors by whole blood flow cytometry were utilized to assess platelet activity after preincubation with escalating concentrations of E5555 (20 ng/ml, 50 ng/ml, and 100 ng/ml). The experiments were performed in healthy volunteers, CAD patients treated with ASA, and CAD patients treated with ASA and clopidogrel combination (n=10, for each group).
(§2) An Informed Consent was obtained from all volunteers. Drug users were excluded from data analysis. The study was approved by Quorum Institutional Review Board. All subjects underwent blood sampling after at least 30 minutes of rest and two or more hours of fasting. Blood (28 ml) was drawn between 8 and 10 a.m. in order to avoid any diurnal influence and sampled from an antecubital vein using a 21-gauge butterfly needle containing 3.2% sodium citrate (1:9 volume) after having discarded the first 1.5 ml of free running blood. Four Vacutainer tubes (7.0 ml) were collected for a total of 28 ml of whole blood-citrate mixture from each study participant. Chronologically, blood samples were delivered to the core laboratory facility within 45 minutes after drawing. Then all tubes of blood-citrate mixture were pooled. One portion of pooled blood (5 ml) was kept as an internal control and pretreated with the vehicle. The remaining blood (23 ml) was used for the in vitro exposure to E5555 at concentrations of 20 ng/ml, 50 ng/ml, and 100 ng/ml. […] The platelet aggregation studies, Rapid Analyzers measures, and flow cytometry preparations were initiated within no more than 110 minutes following the blood draw, incubation with the drug, and preparation of the samples.
Platelet counts were determined in each PRP sample with a Coulter Counter ZM (Coulter Co., Hialeah, Fla.). Platelet numbers were adjusted to 3.50×10^8/ml for aggregation using homologous platelet-poor plasma. Platelet aggregation was stimulated with 5 μM ADP, 1 μg/ml collagen, or 10 μM TRAP. All agonists were obtained from Chronolog Corporation (Havertown, Pa.) and Sigma (St. Louis, Miss.). Platelet aggregation experiments were performed using a Chrono-Log Lumi-Aggregometer (model 560-Ca). Aggregation curves were recorded for 4 minutes and analyzed according to internationally established standards using Aggrolink® software. Platelet aggregability was expressed as the percentage of light transmittance change from baseline using platelet-poor plasma as a reference.

P-selectin (CD62p) = test: Unstimulated whole blood flow cytometry, P-selectin; settings: for P-selectin (CD62p), % positive cells: unstimulated, Mean ± SD
Experimental: as §1, §2
(§3) Formation of platelet-leukocyte aggregates was assessed by dual labeling with pan-platelet marker (CD151), and then with CD14, the macrophage receptor for endotoxin lipopolysaccharides (PharMingen, and Coulter, San Diego, Calif., USA). The tubes were then covered with aluminum foil and incubated at 37° C. for 40 minutes with gentle rotation. After incubation, samples were immediately analyzed on a Becton Dickinson FACScan flow cytometer. The instrument was set up to measure forward light scatter, and FITC fluorescence. All parameters were collected using four-decade logarithmic amplification. The data was retrieved in list mode files and then analyzed. P selectin was expressed as percent positive cells. Other antigens were expressed as log mean fluorescence intensity.

LAMP-3 (CD63) [1] = test: Unstimulated whole blood flow cytometry, LAMP-3; settings: for LAMP-3 (CD63), Mean Fluorescence Intensity: unstimulated, Mean ± SD
Experimental: as §1, §2, §3

PMA (CD14 + CD151) = test: Unstimulated whole blood flow cytometry, platelet-monocyte aggregates; settings: for PMA (CD14 + CD151), Mean Fluorescence Intensity: unstimulated, Mean ± SD
Experimental: as §1, §2, §3

LAMP-3 (CD63) [2] = test: TRAP-stimulated whole blood flow cytometry, LAMP-3; settings: Mean ± SD
Experimental: as §1, §2, §3
For flow cytometry (TRAP-stimulated) all of the above flow cytometry experiments were identically repeated utilizing prestimulation with 10 μmol/L TRAP for 5 minutes at 37° C. To determine statistics, a Paired Sign Test was used to define significance of differences between vehicle and E5555-treated groups. The Mann-Whitney U test was used to analyze nonparametric data. Normally distributed data were expressed as mean±standard error (m±SE), and skewed data as median (range). All P-values were two sided. All analysis was performed using the SPSS v9.0 program (SPSS Inc., Chicago, Ill.).

GP37 (CD165) = test: Unstimulated whole blood flow cytometry, GP37; settings: Mean ± SD
Experimental: as §1, §2, §3

[3] = overall summary, stimulation not stated
[4] = E5555 20 ng/ml, Patients (ASA + C)
[5] = E5555 50 ng/ml, Patients (ASA + C)
[6] = E5555 100 ng/ml, Patients (ASA + C)
[7] = E5555 100 ng/ml, Patients (ASA)

In the case of `Br.CCOc1cc2c(c(F)c1OCC)C(=N)N(CC(=O)c1cc(N3CCOCC3)c(OC)c(C(C)(C)C)c1)C2` [E5555, 1-(3-tert-butyl-4-methoxy-5-morpholinophenyl)-2-(5,6-diethoxy-7-fluoro-1-imino-1,3-dihydro-2H-isoindol-2-yl)ethanone hydrobromide], the “inhibition of platelet activity, aggregation induced by collagen” value (platelets; ASA-treated patients with coronary artery disease) is reported as 10-12%, the “collagen-induced aggregation, effect in words” value (platelets; CAD patients treated with ASA+clopidogrel) is reported as “moderate inhibition” and the “Platelet Aggregation (%), Collagen 1 μg/mL” value (“Platelet Aggregation (%)” for short) (platelets; E5555 20 ng/ml, CAD patients treated with ASA + clopidogrel) is reported as 20.6 ± 3.2 %. The “Platelet Aggregation (%)” value (platelets; E5555 20 ng/ml, CAD patients treated with ASA) was 23.9 ± 4.8 %, the “Platelet Aggregation (%)” value (platelets; E5555 20 ng/ml, healthy volunteers) was 67.6 ± 6.2 % and the “Platelet Aggregation (%)” value (platelets; E5555 50 ng/ml, CAD patients treated with ASA + clopidogrel) was 24.0 ± 3.3 %. For the same molecule, the “Platelet Aggregation (%)” value (platelets; E5555 50 ng/ml, CAD patients treated with ASA) was 26.1 ± 4.0 %, the “Platelet Aggregation (%)” value (platelets; E5555 50 ng/ml, healthy volunteers) was 69.1 ± 6.5 % and the “Platelet Aggregation (%)” value (platelets; E5555 100 ng/ml, CAD patients treated with ASA + clopidogrel) was 21.7 ± 4.2 %. The “Platelet Aggregation (%)” value (platelets; E5555 100 ng/ml, CAD patients treated with ASA) was 25.7 ± 5.2 %, the “Platelet Aggregation (%)” value (platelets; E5555 100 ng/ml, healthy volunteers) was 72.8 ± 7.5 % and the “inhibition of conventional platelet aggregation induced by collagen” value (platelets; healthy volunteers, E5555 20, 50, and 100 ng/ml) was 15-20%. For the same molecule, the “inhibition of collagen-induced platelet aggregation in plasma” value (platelets; overall summary of the study) was 10-15%, the “P selectin, effect in words” value (P-selectin (CD62p); [3]) was “not affected” and the “P-selectin (CD62p), % positive cells” value (P-selectin (CD62p); [4]) was 7.6 ± 2.0 % positive cells. The “P-selectin (CD62p), % positive cells” value (P-selectin (CD62p); E5555 20 ng/ml, Patients (ASA)) was 9.7 ± 1.5 % positive cells, the “P-selectin (CD62p), % positive cells” value (P-selectin (CD62p); E5555 20 ng/ml, Volunteers) was 10.8 ± 2.0 % positive cells and the “P-selectin (CD62p), % positive cells” value (P-selectin (CD62p); [5]) was 7.7 ± 2.2 % positive cells. For the same molecule, the “P-selectin (CD62p), % positive cells” value (P-selectin (CD62p); E5555 50 ng/ml, Patients (ASA)) was 10.1 ± 1.8 % positive cells, the “P-selectin (CD62p), % positive cells” value (P-selectin (CD62p); E5555 50 ng/ml, Volunteers) was 12.3 ± 2.2 % positive cells and the “P-selectin (CD62p), % positive cells” value (P-selectin (CD62p); [6]) was 8.0 ± 11.5 % positive cells. For the same molecule, the “P-selectin (CD62p), % positive cells” value (P-selectin (CD62p); [7]) was 10.7 ± 1.6 % positive cells, the “P-selectin (CD62p), % positive cells” value (P-selectin (CD62p); E5555 100 ng/ml, Volunteers) was 11.4 ± 1.8 % positive cells and the “LAMP, effect in words” value (LAMP-3 (CD63) [1]; [3]) was “not affected”. For the same molecule, the “LAMP-3 (CD63), Mean Fluorescence Intensity” value (shortened to “LAMP-3 (CD63)”) (LAMP-3 (CD63) [1]; [4]) was 7.2 ± 1.3 MFI, the “LAMP-3 (CD63)” value (LAMP-3 (CD63) [1]; E5555 20 ng/ml, Patients (ASA)) was 7.0 ± 1.6 MFI and the “LAMP-3 (CD63)” value (LAMP-3 (CD63) [1]; E5555 20 ng/ml, Volunteers) was 8.1 ± 2.0 MFI. For the same molecule, the “LAMP-3 (CD63)” value (LAMP-3 (CD63) [1]; [5]) was 7.0 ± 1.7 MFI, the “LAMP-3 (CD63)” value (LAMP-3 (CD63) [1]; E5555 50 ng/ml, Patients (ASA)) was 7.2 ± 1.5 MFI and the “LAMP-3 (CD63)” value (LAMP-3 (CD63) [1]; E5555 50 ng/ml, Volunteers) was 8.0 ± 1.7 MFI. For the same molecule, the “LAMP-3 (CD63)” value (LAMP-3 (CD63) [1]; [6]) was 6.9 ± 1.8 MFI, the “LAMP-3 (CD63)” value (LAMP-3 (CD63) [1]; [7]) was 6.5 ± 1.9 MFI and the “LAMP-3 (CD63)” value (LAMP-3 (CD63) [1]; E5555 100 ng/ml, Volunteers) was 7.7 ± 2.1 MFI. The “Formation of platelet-monocyte aggregates, effect in words” value (PMA (CD14 + CD151); [3]) was “significantly reduced”, the “PMA (CD14 + CD151), Mean Fluorescence Intensity” value (shortened to “PMA (CD14 + CD151)”) (PMA (CD14 + CD151); [4]) was 104 ± 16 MFI and the “PMA (CD14 + CD151)” value (PMA (CD14 + CD151); E5555 20 ng/ml, Patients (ASA)) was 114 ± 18 MFI. The “PMA (CD14 + CD151)” value (PMA (CD14 + CD151); E5555 20 ng/ml, Volunteers) was 130 ± 16 MFI, the “PMA (CD14 + CD151)” value (PMA (CD14 + CD151); [5]) was 100 ± 27 MFI and the “PMA (CD14 + CD151)” value (PMA (CD14 + CD151); E5555 50 ng/ml, Patients (ASA)) was 114 ± 19 MFI. The “PMA (CD14 + CD151)” value (PMA (CD14 + CD151); E5555 50 ng/ml, Volunteers) was 128 ± 18 MFI, the “PMA (CD14 + CD151)” value (PMA (CD14 + CD151); [6]) was 105 ± 21 MFI and the “PMA (CD14 + CD151)” value (PMA (CD14 + CD151); [7]) was 107 ± 20 MFI. For the same molecule, the “PMA (CD14 + CD151)” value (PMA (CD14 + CD151); E5555 100 ng/ml, Volunteers) was 124 ± 23 MFI, the “LAMP-3 (CD63)” value (LAMP-3 (CD63) [2]; [4]) was 20 ± 5 MFI and the “LAMP-3 (CD63)” value (LAMP-3 (CD63) [2]; E5555 20 ng/ml, Patients (ASA)) was 24 ± 8 MFI. The “LAMP-3 (CD63)” value (LAMP-3 (CD63) [2]; E5555 20 ng/ml, Volunteers) was 26 ± 7 MFI, the “LAMP-3 (CD63)” value (LAMP-3 (CD63) [2]; [5]) was 5 ± 3 MFI and the “LAMP-3 (CD63)” value (LAMP-3 (CD63) [2]; E5555 50 ng/ml, Patients (ASA)) was 9 ± 3 MFI. For the same molecule, the “LAMP-3 (CD63)” value (LAMP-3 (CD63) [2]; E5555 50 ng/ml, Volunteers) was 8 ± 2 MFI, the “LAMP-3 (CD63)” value (LAMP-3 (CD63) [2]; [6]) was 4 ± 1 MFI and the “LAMP-3 (CD63)” value (LAMP-3 (CD63) [2]; [7]) was 5 ± 1 MFI. For the same molecule, the “LAMP-3 (CD63)” value (LAMP-3 (CD63) [2]; E5555 100 ng/ml, Volunteers) was 7 ± 2 MFI, the “GP37 (CD165), Mean Fluorescence Intensity” value (from here on “GP37 (CD165)”) (GP37 (CD165); [4]) was 25 ± 11 MFI and the “GP37 (CD165)” value (GP37 (CD165); E5555 20 ng/ml, Patients (ASA)) was 30 ± 7 MFI. For the same molecule, the “GP37 (CD165)” value (GP37 (CD165); E5555 20 ng/ml, Volunteers) was 27 ± 8 MFI, the “GP37 (CD165)” value (GP37 (CD165); [5]) was 28 ± 10 MFI and the “GP37 (CD165)” value (GP37 (CD165); E5555 50 ng/ml, Patients (ASA)) was 27 ± 12 MFI. For the same molecule, the “GP37 (CD165)” value (GP37 (CD165); E5555 50 ng/ml, Volunteers) was 28 ± 7 MFI, the “GP37 (CD165)” value (GP37 (CD165); [6]) was 25 ± 12 MFI and the “GP37 (CD165)” value (GP37 (CD165); [7]) was 28 ± 11 MFI. The “GP37 (CD165)” value (GP37 (CD165); E5555 100 ng/ml, Volunteers) was 26 ± 6 MFI.
